How the values were obtained:
[1] = system: HEK293 cells; experiment: [3H]D-serine transport in HEK293 cells; type: cell-based; conditions: endogenous ASCT2
Procedure: (§1) The cell lines HEK293 and Flp-In TREx 293 were cultured at 37° C. in a 5% CO2 environment, using Dulbecco's Modified Eagle Medium (DMEM) containing 10% fetal bovine serum (FBS), 100 units/ml Penicillin G and 100 μg/ml streptomycin (P/S). The cells were seeded in a Poly-D-lysine coated 24-well plate at 6×10^4 cells/well. After culturing for 3 days in DMEM Medium containing 10% FBS and P/S, the cell were used for transport activity measurement. Before transport activity measurement, the cells were washed with transport activity measurement buffer (PBS+1 g/L D-glucose) prewarmed to 37° C. and incubated for 10 minutes at 37° C. in 500 μL of buffer. The transport activity measurement was initiated by addition of D-[^3H]serine-containing transport activity buffer at the indicated concentration. The reaction product produced after addition was incubated at 37° C. for the indicated time. The reaction was suspended by removing the D-[^3H]serine-containing transport activity buffer, and the product was washed 3 times with thoroughly cooled transport activity buffer. The cells were dissolved with 500 μL of 0.1 N NaOH and incubated for at least one hour. Protein concentration of the cell lysate was measured by BCA protein assay. The lysate was mixed with 1 mL of Emulsifier Safe (PerkinElmer, MA, USA) and the radioactivity of the lysate was measured with a β-scintillation counter (LSC-8000, Hitachi). In transport activity measurement for Na^+, HBSS (+Na^+: 125 mM NaCl, −Na^+: choline chloride, 4.8 mM KCl, 1.2 mM MgSO4, 1.2 mM KH2PO4, 1.3 mM CaCl2), 5.6 mM D-glucose and 25 mM HEPES was used instead of PBS. For the inhibition experiment, a non-radioactive labeled compound was included as the uptake substrate as shown in the drawing.

[2] = target: T1, ASCT2 (Homo sapiens, UniProt Q15758); experiment: [3H]D-serine transport in HEK293 cells transfected with ASCT2; type: cell-based
T1 construct: expressed in transfected cells; host or cells: HEK293 cells
T1 sequence (Q15758 1-541): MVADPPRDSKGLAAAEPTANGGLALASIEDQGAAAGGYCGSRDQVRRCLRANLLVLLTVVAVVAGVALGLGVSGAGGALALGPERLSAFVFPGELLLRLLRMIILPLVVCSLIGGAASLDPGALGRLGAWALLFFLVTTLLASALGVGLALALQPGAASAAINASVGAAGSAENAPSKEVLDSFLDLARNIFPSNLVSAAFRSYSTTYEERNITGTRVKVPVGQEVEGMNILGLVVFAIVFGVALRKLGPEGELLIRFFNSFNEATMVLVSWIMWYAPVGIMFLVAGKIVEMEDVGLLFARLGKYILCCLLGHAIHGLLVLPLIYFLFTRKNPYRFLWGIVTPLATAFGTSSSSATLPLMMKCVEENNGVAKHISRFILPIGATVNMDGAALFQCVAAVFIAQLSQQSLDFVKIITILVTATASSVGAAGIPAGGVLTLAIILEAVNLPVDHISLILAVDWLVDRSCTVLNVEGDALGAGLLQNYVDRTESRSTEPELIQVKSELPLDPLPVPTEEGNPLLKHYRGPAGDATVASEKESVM
Procedure: The cell lines HEK293 and Flp-In TREx 293 were cultured at 37° C. in a 5% CO2 environment, using Dulbecco's Modified Eagle Medium (DMEM) containing 10% fetal bovine serum (FBS), 100 units/ml Penicillin G and 100 μg/ml streptomycin (P/S). The cells were seeded in a Poly-D-lysine coated 24-well plate at 6×10^4 cells/well. After culturing for 3 days in DMEM Medium containing 10% FBS and P/S, the cell were used for transport activity measurement. Before transport activity measurement, the cells were washed with transport activity measurement buffer (PBS+1 g/L D-glucose) prewarmed to 37° C. and incubated for 10 minutes at 37° C. in 500 μL of buffer. The transport activity measurement was initiated by addition of D-[^3H]serine-containing transport activity buffer at the indicated concentration. The reaction product produced after addition was incubated at 37° C. for the indicated time. The reaction was suspended by removing the D-[^3H]serine-containing transport activity buffer, and the product was washed 3 times with thoroughly cooled transport activity buffer. […] Protein concentration of the cell lysate was measured by BCA protein assay. The lysate was mixed with 1 mL of Emulsifier Safe (PerkinElmer, MA, USA) and the radioactivity of the lysate was measured with a β-scintillation counter (LSC-8000, Hitachi). […]

[3] = system: Flp-In TREx 293 cell line; experiment: D-[3H]serine uptake in Flp-In TREx 293 cell line in the presence of inhibitors; type: cell-based; conditions: 10 minutes
Procedure: as §1

[4] = system: mouse brush border membrane vesicles (BBMV); experiment: D-[3H]serine transport activity measurement with mouse BBMVs; type: biochemical
Procedure: Total mouse kidneys were extracted by perfusion using PBS buffer at pH 7.4, and then immediately frozen with liquid nitrogen and stored at −80° C. until use. The frozen kidneys were resuspended in buffer containing 20 mM Tris-HCl at pH 7.6, 250 mM mannitol, 1 mM EDTA and Complete EDTA-free protease inhibitor cocktail (Roche, Switzerland), and crushed using a PHYSCOTRON (Microtec Co., Ltd.). The sample was then homogenized using a Potter-Elvehjem homogenizer. After centrifugation at 1,000×g for 5 minutes at 4° C., the supernatant was centrifuged at 3,000×g for 5 minutes at 4° C. After centrifugation, the supernatant was mixed with 1 M MgCl2 at a final concentration of 11 mM MgCl2, and incubated on ice for 20 minutes. This was followed by centrifugation at 3,000×g for 15 minutes at 4° C., and then ultracentrifugation of the supernatant containing crude membrane vesicles at 438,000×g for 30 minutes at 4° C. The pellet remaining after ultracentrifugation (BBMVs) was suspended in buffer containing 20 mM Tris-HCl at pH 7.6 and 250 mM mannitol. The BBMVs were quantified using a BCA protein quantitation kit (Thermo Fisher Scientific). The BBMVs were cryopreserved at −80° C. until use. Before transport activity measurement, the cryopreserved BBMVs were thawed to allow introduction of potassium into the BBMVs, after which they were ultracentrifuged at 438,000×g for 30 minutes at 4° C., and the pellet was then suspended in buffer containing 10 mM Tris-HCl at pH 7.6, 100 mM KCl and 100 mM mannitol to a 5 mg/mL protein concentration, and the BBMV suspension was incubated on ice overnight. Before measurement of the transport activity, valinomycin was added to the BBMV sample to a final concentration of 5 μM and the mixture was incubated at room temperature for 30 minutes. […] The used filter was melted with Clear-sol I (Nacalai Tesque, Inc.) and the radioactivity on the filter was measured using a β-scintillation counter (LSC-8000, Hitachi).

[5] = target: T2, hSMCT2 (Homo sapiens, UniProt Q1EHB4); experiment: D-[3H]serine uptake in FlpIn293TR-hSLC5A12-3×FLAG stable cell line; type: cell-based; conditions: 20 μM D-[3H]serine, 10 minutes
T2 construct: expressed in transfected cells
T2 sequence (Q1EHB4 1-618): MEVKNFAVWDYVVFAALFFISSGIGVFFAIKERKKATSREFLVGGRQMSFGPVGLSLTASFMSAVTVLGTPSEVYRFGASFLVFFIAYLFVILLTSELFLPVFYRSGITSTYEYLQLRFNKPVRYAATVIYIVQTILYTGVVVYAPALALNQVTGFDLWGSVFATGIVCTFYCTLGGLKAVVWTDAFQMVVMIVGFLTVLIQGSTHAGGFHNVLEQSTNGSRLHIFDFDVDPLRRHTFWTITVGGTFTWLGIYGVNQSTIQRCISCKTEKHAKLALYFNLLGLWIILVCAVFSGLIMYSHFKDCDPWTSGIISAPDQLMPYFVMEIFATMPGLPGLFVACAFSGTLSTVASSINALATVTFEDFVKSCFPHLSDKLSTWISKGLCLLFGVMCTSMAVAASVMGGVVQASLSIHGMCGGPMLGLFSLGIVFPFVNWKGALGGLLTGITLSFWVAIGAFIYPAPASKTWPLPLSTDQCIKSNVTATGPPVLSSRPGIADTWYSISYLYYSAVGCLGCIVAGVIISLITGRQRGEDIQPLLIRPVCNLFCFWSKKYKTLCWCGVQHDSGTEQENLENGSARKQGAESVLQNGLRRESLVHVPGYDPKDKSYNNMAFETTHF
Procedure: (§2) The stable cell line FlpIn293 TR was seeded in a poly-D-lysine-coated 24-well plate at 5×10^4 cells/well (Mock) or 6×10^4 cells/well (hSLC5A8 and hSLC5A12 cells), and after 24 hours, 1 mg/L doxycycline hyclate was added to induce recombinant gene expression. The cells were continuously cultured for 2 days and transport activity measurement was conducted at 80% to 90% confluence. In an ASCT2 knockdown experiment, the seeded cells were transfected after 12 hours with ASCT2 siRNA at 10 pmol/well, using Lipofectamine 3000. Before transport activity measurement, the cells were washed 3 times with transport activity buffer (PBS+1 g/L D-glucose) warmed to 37° C. and incubated for 10 minutes at 37° C. in 500 μL of buffer. The transport activity measurement was initiated by addition of D-[^3H]serine-containing transport activity buffer at the indicated concentration. The reaction product produced after addition was incubated at 37° C. for the indicated time. The reaction was suspended by removing the D-[^3H] serine-containing transport activity buffer, and the product was washed 3 times with thoroughly cooled transport activity buffer. […] Protein concentration of the cell lysate was measured by BCA protein assay. The lysate was mixed with 1 mL of Emulsifier Safe (PerkinElmer, MA, USA) and the radioactivity of the lysate was measured with a β-scintillation counter (LSC-8000, Hitachi). […]

[6] = target: T3, hSMCT1 (Homo sapiens, UniProt Q8N695); experiment: D-[3H]serine uptake in FlpIn293TR-hSLC5A8-3×FLAG stable cell line; type: cell-based; conditions: 20 μM D-[3H]serine, 10 minutes
T3 construct: A final pcDNA5-hSLC5A8_NM145913-3×FLAG positive clone was obtained and named “pcDNA5-hSLC5A8-3×FLAG”; expressed in transfected cells
T3 sequence (Q8N695 1-610): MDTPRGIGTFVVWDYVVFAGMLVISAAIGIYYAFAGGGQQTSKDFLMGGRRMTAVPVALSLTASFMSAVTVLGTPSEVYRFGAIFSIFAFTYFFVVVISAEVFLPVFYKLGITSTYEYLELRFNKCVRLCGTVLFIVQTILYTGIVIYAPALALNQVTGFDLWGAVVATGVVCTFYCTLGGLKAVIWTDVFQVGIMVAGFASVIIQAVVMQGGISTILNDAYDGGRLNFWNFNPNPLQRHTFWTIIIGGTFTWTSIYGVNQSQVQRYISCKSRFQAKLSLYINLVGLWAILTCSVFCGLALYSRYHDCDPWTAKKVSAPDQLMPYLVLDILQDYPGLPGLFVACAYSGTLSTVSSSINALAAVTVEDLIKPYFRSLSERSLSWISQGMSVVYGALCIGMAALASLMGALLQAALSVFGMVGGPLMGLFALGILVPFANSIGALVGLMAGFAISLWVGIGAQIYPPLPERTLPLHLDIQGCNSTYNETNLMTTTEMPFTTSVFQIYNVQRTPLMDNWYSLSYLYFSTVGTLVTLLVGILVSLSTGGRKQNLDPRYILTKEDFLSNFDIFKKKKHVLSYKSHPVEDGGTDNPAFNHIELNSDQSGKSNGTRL
Procedure: as §2

[7] = system: FlpIn293TR-hSLC5A8-3×FLAG (SMCT1)-stable cell line; experiment: Toxicity test (XTT) in SMCT1-stable cell line; type: cell-based; conditions: 500 μM ibuprofen added with D-serine to SMCT1 cells
Procedure: (§3) A toxicity test for stable cells was carried out using an FlpIn293TR-stable cell line. The cells were seeded in a poly-D-lysine-coated 96-well plate at 6.5×10^3 cells/well (Mock) and 8×10^3 cells/well (hSLC5A8 and hSLC5A12 cells), while in antibiotic-free DMEM+dialyzed FBS medium. After 24 hours, they were treated with L- or D-serine at different concentrations and 1 mg/L of doxycycline hyclate was added to induce recombination gene expression. For the ASCT2 knockdown experiment, the seeded cells were transfected after 12 hours with ASCT2 siRNA at 2 pmol/well, using Lipofectamine 3000. The effect of ibuprofen was analyzed by simultaneous addition with D-serine treatment. The cells were cultured for 2 days to 80% confluence. The proliferated cell count was determined by XTT measurement in the same manner as described above.

[8] = system: FlpIn293TR-hSLC5A12-3×FLAG (SMCT2)-stable cell line; experiment: Toxicity test (XTT) in SMCT2-stable cell line; type: cell-based; conditions: 500 μM ibuprofen added with D-serine to SMCT2 cells
Procedure: as §3

## NCCCC(=O)O [GABA, γ-aminobutyric acid]
[1]
  [3H]D-serine transport: inhibit
[2]
  [3H]D-serine transport: inhibited

## N[C@@H](CCC(=O)Nc1ccc([N+](=O)[O-])cc1)C(=O)O [GPNA, L-γ-glutamyl-p-nitroanilide]
[3]
  Uptake of D-[3H]serine: inhibited

## CSCC[C@H](N)C(=O)O [L-methionine]
[1]
  [3H]D-serine transport: inhibited
[3]
  Uptake of D-[3H]serine: inhibited

## C[C@@H](O)[C@H](N)C(=O)O [L-threonine]
[1]
  [3H]D-serine transport: inhibited
[3]
  Uptake of D-[3H]serine: inhibited
[4]; 2 mM L-threonine, 10 μM D-[3H]serine, measuring time 30 seconds
  uptake activity inhibited: About 70%

## CC(=O)Oc1ccccc1C(=O)O [acetylsalicylic acid]
[5]
  D-[3H]serine transport: inhibited
[6]
  D-[3H]serine transport: inhibited

## CC(C)Cc1ccc(C(C)C(=O)O)cc1 (centres unmarked) [ibuprofen]
[7]
  effect of ibuprofen on D-serine effect on cell proliferation: reduced the D-serine effect to the same level as the Mock cells
[8]
  effect of ibuprofen on D-serine effect on cell proliferation: reduced the D-serine effect to the same level as the Mock cells
[4]; 1 and 3 mM ibuprofen, 50 μM D-[3H]serine, 1 minute
  D-[3H]serine transport activity: strongly inhibited
[5]
  D-[3H]serine transport: inhibited
[6]
  D-[3H]serine transport: inhibited

## O=C(O)c1cccnc1 [nicotinic acid]
[4]; 1 mM nicotinic acid, 10 μM D-[3H]serine, measuring time 30 seconds
  Na+-dependent uptake inhibited: approximately 30%

## S-benzyl-L-cystine [Benzyl-Cys]
[3]
  Uptake of D-[3H]serine: inhibited
